In patent publication US4426519A, “7-(2-Amino-4-thiazolyl)-acetamido cephalosporanic acids” (Roussel Uclaf, priority 1979, dated 1984):
In brackets after ≈: the same amount, converted by molar mass. Structures can show the parent of a compound that is named as a salt. Where two headings read alike, the source gives them in different places.

Tests used:
Test in all cases: MIC, dilution in liquid medium
Assay type in all cases: cell-based
[1] = test system: Bacillus subtilis ATCC 6 633
Method: (§1) The method used was a dilution of a liquid medium where a series of tubes received the same quantity of a sterile nutritive media and increasing doses of the test compounds were placed therein. Then each tube was seeded with a bacterial strain and was incubated for 24 to 48 hours at 37° C. in an oven. The increasing inhibition was determined by transillulumination to determine the minimum inhibiting concentration (MIC in μg/ml) and the results are reported in the following Tables.

[2] = test system: Escherichia Coli Exp. TO26 B6
Method: as §1

[3] = test system: Escherichia Coli Resistant Gentamycine, Tobramycine R 55 123 D
Method: as §1

[4] = test system: Escherichia Coli Resistant Tetracycline ATCC 11 303
Method: as §1

[5] = test system: Escherichia Coli sensitive Tetracycline ATCC 9 637
Method: as §1

[6] = test system: Klebsiella pneumoniae 2 536 Resistant Gentamycine
Method: as §1

[7] = test system: Klebsiella pneumoniae Exp. 52 145
Method: as §1

[8] = test system: Proteus mirabilis (indol-) A 235
Method: as §1

Providencia Du 48 = test system: Providencia Du 48
Method: as §1

[9] = test system: Salmonella typhimurium 420; settings: Salmonella enterica
Method: as §1

[10] = test system: Serratia Resistant Gentamycine 2 532
Method: as §1

[11] = test system: Staphylococcus aureus ATCC 6 538 Pen Sensitive
Method: as §1

[12] = test system: Staphylococcus aureus UC 1 128 Pen-resistant
Method: as §1

[13] = test system: Staphylococcus aureus exp.n°54 146
Method: as §1

[14] = test system: Streptococcus pyogenes A 561
Method: as §1

Enterobacter cloacae 681 = test system: Enterobacter cloacae 681
Method: as §1

[15] = test system: Pseudomonas 3935 Exp.Sensible Gentamycine
Method: as §1

| SMILES | MIC ([1]; ATCC6, 48 h) | MIC ([2]; 24 h) | MIC ([2]; 48 h) | MIC ([3]; 24 h) | MIC ([3]; 48 h) | MIC ([4]; ATCC11, 24 h) | MIC ([4]; ATCC11, 48 h) | MIC ([5]; ATCC9, 48 h) | MIC ([6]; 48 h) | MIC ([8]; 24 h) | MIC ([8]; 48 h) | MIC ([9]; 24 h) | MIC ([10]; 24 h) | MIC ([11]; ATCC6, 48 h) | MIC ([12]; UC1, 24 h) | MIC ([12]; UC1, 48 h) | MIC ([13]; 24 h) | MIC ([13]; 48 h) | MIC ([14]; A561, 24 h) | MIC ([14]; A561, 48 h) | other results |
| --- | --- | --- | --- | --- | --- | --- | --- | --- | --- | --- | --- | --- | --- | --- | --- | --- | --- | --- | --- | --- | --- |
| CC(=O)OCC1=C(C(=O)O)N2C(=O)C(NC(=O)/C(=N\OCCSC#N)c3csc(N)n3)C2SC1 (stereo not drawn) [Example 7, Syn isomer of 3-acetoxymethyl-7-[2-(2-amino-4-thiazolyl)-2-(2-thiocyanatoethoxyimino)-acetamido]-ceph-3-eme-4-carboxylic acid] | 2 µg/mL (≈ 3.8 µM) | 2 µg/mL (≈ 3.8 µM) | 2 µg/mL (≈ 3.8 µM) | 1 µg/mL (≈ 1.9 µM) | 1 µg/mL (≈ 1.9 µM) | 0.2 µg/mL (≈ 0.38 µM) | 0.2 µg/mL (≈ 0.38 µM) | 5 µg/mL (≈ 9.5 µM) | 5 µg/mL (≈ 9.5 µM) | 0.2 µg/mL (≈ 0.38 µM) | 0.5 µg/mL (≈ 0.95 µM) | 1 µg/mL (≈ 1.9 µM) | 2 µg/mL (≈ 3.8 µM) | 1 µg/mL (≈ 1.9 µM) | 1 µg/mL (≈ 1.9 µM) | 1 µg/mL (≈ 1.9 µM) | 1 µg/mL (≈ 1.9 µM) | 2 µg/mL (≈ 3.8 µM) | 0.02 µg/mL (≈ 0.038 µM) | 0.02 µg/mL (≈ 0.038 µM) | MIC ([1]; ATCC6, 24 h): 1 µg/mL (≈ 1.9 µM); MIC ([5]; ATCC9, 24 h): 5 µg/mL (≈ 9.5 µM); MIC ([6]; 24 h): 5 µg/mL (≈ 9.5 µM); MIC ([7]; EXP.52145, 24 h, read-out: MIC): 0.5 µg/mL (≈ 0.95 µM); MIC ([7]; EXP.52145, 48 h, read-out: MIC): 0.5 µg/mL (≈ 0.95 µM); MIC (Providencia Du 48; DU48, 24 h, read-out: MIC): 10 µg/mL (≈ 19 µM); MIC (Providencia Du 48; DU48, 48 h, read-out: MIC): 10 µg/mL (≈ 19 µM); MIC ([9]; 48 h): 3 µg/mL (≈ 5.7 µM); MIC ([10]; 48 h): 3 µg/mL (≈ 5.7 µM); MIC ([11]; ATCC6, 24 h): 1 µg/mL (≈ 1.9 µM) |
| Cc1nnc(SCC2=C(C(=O)O)N3C(=O)C(NC(=O)/C(=N\OCCSC(=N)N)c4csc(N)n4)C3SC2)s1 (stereo not drawn) [Example 6, Internal salt of syn isomer of 3-[(2-methyl-1,3,4-thiadiazol-5-yl)-thiomethyl]-7-[2-(2-amino-4-thiazolyl)-2-(2-aminoiminomethylthioethoxyimino)-acetamido]-ceph-3-eme-4-carboxylic acid] | 2 µg/mL | 2 µg/mL | 2 µg/mL | – | – | 0.1 µg/mL | 0.1 µg/mL | 5 µg/mL | 5 µg/mL | 1 µg/mL | 1 µg/mL | 2 µg/mL | 2 µg/mL | 2 µg/mL | 2 µg/mL | 2 µg/mL | 2 µg/mL | 2 µg/mL | 0.05 µg/mL | 0.05 µg/mL | MIC ([1]; ATCC6, 24 h, read-out: MIC): 1 µg/mL; MIC (Enterobacter cloacae 681; Enterobacter cloacae, 681, 24 h, read-out: MIC): 10 µg/mL; MIC (Enterobacter cloacae 681; Enterobacter cloacae, 681, 48 h, read-out: MIC): 10 µg/mL; MIC ([3]; 24 h, read-out: MIC): 1 µg/mL; MIC ([3]; 48 h, read-out: MIC): 1 µg/mL; MIC ([5]; ATCC9, 24 h, read-out: MIC): 5 µg/mL; MIC ([6]; 24 h, read-out: MIC): 5 µg/mL; MIC ([7]; EXP.52145, 24 h, read-out: MIC): 1 µg/mL; MIC ([7]; EXP.52145, 48 h, read-out: MIC): 1 µg/mL; MIC ([9]; 48 h, read-out: MIC): 3 µg/mL; MIC ([10]; 48 h, read-out: MIC): 3 µg/mL; MIC ([11]; ATCC6, 24 h, read-out: MIC): 1 µg/mL |
| Cn1nnnc1SCC1=C(C(=O)O)N2C(=O)C(NC(=O)/C(=N\OCCSC(=N)N)c3csc(N)n3)C2SC1 (stereo not drawn) [Example 4, Internal salt of the syn isomer of 3-[(1-methyl-1H-tetrazol-5-yl)-thiomethyl]-7-[2-(2-amino-4-thiazolyl)-2-(2-aminoiminomethylthioethoxyimino)-acetamido]-ceph-3-eme-4-carboxylic acid] | 2 µg/mL | 1 µg/mL | 1 µg/mL | 1 µg/mL | 1 µg/mL | 0.2 µg/mL | 0.2 µg/mL | 2 µg/mL | 5 µg/mL | 0.2 µg/mL | 0.5 µg/mL | 2 µg/mL | 1 µg/mL | 2 µg/mL | 2 µg/mL | 2 µg/mL | 2 µg/mL | 2 µg/mL | 0.05 µg/mL | 0.05 µg/mL | MIC ([1]; ATCC6, 24 h, read-out: MIC): 0.5 µg/mL; MIC (Enterobacter cloacae 681; Enterobacter cloacae, 681, 24 h): 3 µg/mL; MIC (Enterobacter cloacae 681; Enterobacter cloacae, 681, 48 h): 3 µg/mL; MIC ([5]; ATCC9, 24 h): 2 µg/mL; MIC ([6]; 24 h): 5 µg/mL; MIC ([7]; EXP.52145, 24 h): 1 µg/mL; MIC ([7]; EXP.52145, 48 h): 1 µg/mL; MIC (Providencia Du 48; DU48, 24 h): 5 µg/mL; MIC (Providencia Du 48; DU48, 48 h, read-out: MIC): 10 µg/mL; MIC ([15]; 24 h): 10 µg/mL; MIC ([15]; 48 h): 20 µg/mL; MIC ([9]; 48 h): 2 µg/mL; MIC ([10]; 48 h): 1 µg/mL; MIC ([11]; ATCC6, 24 h): 1 µg/mL |
